Results from US5439933A (priority 1993, dated 1995).
Values after ≈ are worked out from the molar mass of the structure shown. “Also recorded” adds a separate entry of the source.

What was measured:
Format in all cases: cell-based
[1] = tested on: Phyllosticta capitalensis 689-5; assay: Antifungal agar dilution; conditions: Phyllosticta capitalensis, 6895, 48 h
Protocol: (§1) The new scytophycins are also useful as antifungal agents. Antimicrobial activity was determined by the agar dilution method. Tolytoxin was dissolved in 95% ethanol for addition to cooled, molten agar. Nystatin was solubilized in DMSO and diluted in distilled water. Appropriate solvent controls were also prepared. Fungal cultures were grown on Saboraud dextrose agar. Assay plates were incubated for 48 hours post-inoculation. Yeasts and filamentous fungi were incubated at 25° C.

Penicillium notatum = assay: Antifungal agar dilution; conditions: Penicillium chrysogenum, 48 h
Protocol: as §1

[2] = tested on: Alternaria alternata 1715; assay: Antifungal agar dilution; conditions: Alternaria alternata, 1715, 48 h
Protocol: as §1

Rhizoctonia solani 1165 = assay: Antifungal agar dilution; conditions: Rhizoctonia solani, 1165, 48 h
Protocol: as §1

[3] = tested on: Calonectria critalarae 1809; assay: Antifungal agar dilution; conditions: 48 h
Protocol: as §1

Aspergillus oryzae = assay: Antifungal agar dilution; conditions: 48 h
Protocol: as §1

[4] = tested on: Trichophyton mentagrophytes A23; assay: Antifungal agar dilution; conditions: Trichophyton mentagrophytes, A23, 48 h
Protocol: as §1

[5] = tested on: L1210 murine leukemia cells; assay: Cell proliferation assay (cell counts), L1210; conditions: Mus musculus, L1210, 72 h
Protocol: (§2) Tolytoxin and the other new scytophycin compounds are potent anticancer and antifungal agents. The cytotoxicity of tolytoxin and other new scytophycin compounds was determined using a cell proliferation assay, which tested the effect of the compounds on increases in cell numbers.
(§3) Cell lines were grown in plastic dishes (Falcon) in Eagle's basal medium supplemented with 5% newborn calf serum (KB), Fisher's medium supplemented with 10% horse serum (L1210), Dulbecco's modified Eagle's medium supplemented with 5% heat-inactivated fetal calf serum (LoVo), minimal essential medium supplemented with 2% heat-inactivated chicken serum (HEp-2), RPMI-1640 supplemented with 10% heat-inactivated fetal calf serum (T-47D, COLO-201) or 20% heat-inactivated fetal calf serum (HL-60, KATO-III), or McCoy's 5A supplemented with 10% heat-inactivated fetal calf serum (HBL-100). All cell culture media were supplemented with 50 μg/ml gentamycin sulfate. The cultures were incubated at 37° C. in a humidified atmosphere containing 5% carbon dioxide.
(§4) Cultures were exposed to graded concentrations of tolytoxin and reincubated for 72 hours in the presence of tolytoxin. Three dishes were used for each treatment. Cell numbers were determined by hemacytometer counts. The IC50 for each cell line was determined by plotting the logarithm of the tolytoxin concentration versus growth (cell number as a percentage of the control) of the treated cells.
The other new scytophycin compounds are also potent cytotoxins. For example, the IC50 of the scytophycins against KB human epidermoid carcinoma, LoVo human adenocarcinoma, and L1210 murine leukemia were determined using the cell proliferation assay described for tolytoxin.

[6] = tested on: Human epidermoid carcinoma (KB) cells; assay: Cell shape and nuclear protrusion by microscopy
Protocol: In the following procedure new scytophycins were employed to cause nuclear protrusion in mammalian cells. Human epidermoid carcinoma (KB) cells were plated on plastic tissue-culture dishes in Dulbecco's modified Eagle's medium at 1×10^5 cells per 60 mm dish. The cell cultures were incubated overnight at 37° C. in a humidified atmosphere of 95% air and 5% carbon dioxide to allow the cells to settle and become attached. Following the incubation, tolytoxin or the appropriate vehicle control was added in a volume of not more than 35 μL per 5 mL of culture medium. After an additional incubation period ranging from 1 to 4 hours, the culture medium was removed and the cell layer washed twice with phosphate-buffered saline (PBS), pH 7.2. The washed cell layer was stained for 15 minutes with 0.01% acridine orange in PBS. Following staining, the cell suspension was washed for 15 minutes with two changes of PBS to remove unbound stain and photographed on a Zeiss IM-35 photomicroscope equipped with brightfield and epifluorescence optics.

[7] = tested on: HBL-100 human breast cells; assay: Cell proliferation assay (cell counts), HBL-100; conditions: Table 5, 72 hours
Protocol: as §2, §3
as §4, with “Three dishes were used for each treatment.” left out

[8] = tested on: HL-60 human promyelocytic leukemia cells; assay: Cell proliferation assay (cell counts), HL-60; conditions: Table 5, 72 hours
Protocol: as §2, §3
as §4, with “Three dishes were used for each treatment.” left out

[9] = tested on: T47-D human ductal carcinoma cells; assay: Cell proliferation assay (cell counts), T47-D; conditions: T47D, Table 5, 72 hours
Protocol: as §2, §3
as §4, with “Three dishes were used for each treatment.” left out

COC1CC2C=CCC(CC(OC)C3(CO3)C(OC)CC(OC)C(C)C(C(C)C(O)C(C)CCC(=O)C(C)C(OC)C(C)/C=C/N(C)C=O)OC(=O)/C=C/C(C)=C/C1O)O2 (stereo not shown) [Tolytoxin, 6-hydroxy-7-O-methylscytophycin B]
MIC [1]: 0.5 nM (≈ 0.425 ng/mL)
MIC (Penicillium notatum): 0.25 nM (≈ 0.213 ng/mL)
MIC [2]: 4 nM (≈ 3.4 ng/mL)
MIC (Rhizoctonia solani 1165): 0.25 nM (≈ 0.213 ng/mL)
MIC [3]: 2 nM (≈ 1.7 ng/mL)
MIC (Aspergillus oryzae): 0.5 nM (≈ 0.425 ng/mL)
MIC [4]: 8 nM (≈ 6.8 ng/mL)
IC50 [5]: 3.9 nM
cell shape and surface appearance ([6]; 4 nM, 1 hour): fibroblastoid cellular shape and the appearance of blebs or zeioses on the cell surfaces; also recorded: the cells have lost their normal extended fibroblastoid shape, and the appearance of blebs or zeioses on the cell surface is apparent
migration of cell nucleus ([6]; 8nM, 4 hours): the cell nuclei have migrated out of their respective cell bodies; also recorded: The cell nucleus has migrated outside the body of the cell and now occupies one of the zeiotic processes
IC50 [7]: 2.4 nM
IC50 [8]: 4.8 nM
IC50 [9]: 4.9 nM
